According to ChEMBL document CHEMBL1201862, “PubChem BioAssay data set” (2004):
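A five-concentration, 48-hour dose response in 96-well plates underlies each endpoint, interpolated linearly between surrounding concentrations. GI50 is the concentration that inhibits growth by half.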 Active and inactive are the calls of the source. Rule as the data show it: active = GI50 up to about 1.1 µM and inactive = higher.

Tests used:
Assay in all cases: DTP human tumour cell line panel, 48 h
ACHN = tested on: ACHN
MDA-N = tested on: MDA-N
SF-539 = tested on: SF-539
MDA-MB-231 = tested on: MDA-MB-231
RXF 393 = tested on: RXF 393
MOLT-4 = tested on: MOLT-4
SF-268 = tested on: SF-268
EKVX = tested on: EKVX
M14 = tested on: M14
UACC-257 = tested on: UACC-257
SN12C = tested on: SN12C
BT-549 = tested on: BT-549
U-251 = tested on: U-251
Hs-578T = tested on: Hs-578T
NCI-H522 = tested on: NCI-H522
UACC-62 = tested on: UACC-62
NCI-H460 = tested on: NCI-H460
RPMI-8226 = tested on: RPMI-8226
SK-OV-3 = tested on: SK-OV-3
HOP-92 = tested on: HOP-92
A498 = tested on: A498
HL-60 = tested on: HL-60
K562 = tested on: K562
KM12 = tested on: KM12
SF-295 = tested on: SF-295
NCI/ADR-RES = tested on: NCI/ADR-RES
NCI-H23 = tested on: NCI-H23
NCI-H226 = tested on: NCI-H226
DU-145 = tested on: DU-145
SNB-19 = tested on: SNB-19
OVCAR-3 = tested on: OVCAR-3
SK-MEL-5 = tested on: SK-MEL-5
HT-29 = tested on: HT-29
OVCAR-5 = tested on: OVCAR-5
A549 = tested on: A549
T47D = tested on: T47D
HCC 2998 = tested on: HCC 2998
TK-10 = tested on: TK-10
SK-MEL-28 = tested on: SK-MEL-28
SNB-75 = tested on: SNB-75
HCT-116 = tested on: HCT-116
LOX IMVI = tested on: LOX IMVI
COLO 205 = tested on: COLO 205
CAKI-1 = tested on: CAKI-1
OVCAR-8 = tested on: OVCAR-8
786-0 = tested on: 786-0
SK-MEL-2 = tested on: SK-MEL-2
PC-3 = tested on: PC-3
MDA-MB-435 = tested on: MDA-MB-435
HCT-15 = tested on: HCT-15
OVCAR-4 = tested on: OVCAR-4
UO-31 = tested on: UO-31
SW-620 = tested on: SW-620
CCRF-CEM = tested on: CCRF-CEM
MCF7 = tested on: MCF7
HOP-62 = tested on: HOP-62
Malme-3M = tested on: Malme-3M
SR = tested on: SR
IGROV-1 = tested on: IGROV-1

In the case of COc1cc(/C=C/C(=O)N[C@@H]2C(=O)N3[C@@H]2SC(C)(C)[C@@H]3C(=O)O)cc(OC)c1OC, the GI50 (ACHN) was > 100 µM (inactive), the GI50 (MDA-N) was > 100 µM (inactive) and the GI50 (SF-539) was > 100 µM (inactive). The GI50 (MDA-MB-231) was > 100 µM (inactive), the GI50 (RXF 393) was > 100 µM (inactive) and the GI50 (MOLT-4) was > 100 µM (inactive). The GI50 (SF-268) was > 100 µM (inactive), the GI50 (EKVX) was > 100 µM (inactive) and the GI50 (M14) was > 100 µM (inactive). For the same molecule, the GI50 (UACC-257) was > 100 µM (inactive), the GI50 (SN12C) was > 100 µM (inactive) and the GI50 (BT-549) was > 100 µM (inactive). The GI50 (U-251) was > 100 µM (inactive), the GI50 (Hs-578T) was > 100 µM (inactive) and the GI50 (NCI-H522) was > 100 µM (inactive). The GI50 (UACC-62) was > 100 µM (inactive), the GI50 (NCI-H460) was > 100 µM (inactive) and the GI50 (RPMI-8226) was > 100 µM (inactive). For the same molecule, the GI50 (SK-OV-3) was > 100 µM (inactive), the GI50 (HOP-92) was > 100 µM (inactive) and the GI50 (A498) was > 100 µM (inactive). For the same molecule, the GI50 (HL-60) was > 100 µM (inactive), the GI50 (K562) was > 100 µM (inactive) and the GI50 (KM12) was > 100 µM (inactive). The GI50 (SF-295) was > 100 µM (inactive), the GI50 (NCI/ADR-RES) was > 100 µM (inactive) and the GI50 (NCI-H23) was > 100 µM (inactive). For the same molecule, the GI50 (NCI-H226) was > 100 µM (inactive), the GI50 (DU-145) was > 100 µM (inactive) and the GI50 (SNB-19) was > 100 µM (inactive). The GI50 (OVCAR-3) was > 100 µM (inactive), the GI50 (SK-MEL-5) was > 100 µM (inactive) and the GI50 (HT-29) was > 100 µM (inactive). The GI50 (OVCAR-5) was > 100 µM (inactive), the GI50 (A549) was > 100 µM (inactive) and the GI50 (T47D) was > 100 µM (inactive). The GI50 (HCC 2998) was > 100 µM (inactive), the GI50 (TK-10) was > 100 µM (inactive) and the GI50 (SK-MEL-28) was > 100 µM (inactive). For the same molecule, the GI50 (SNB-75) was > 100 µM (inactive), the GI50 (HCT-116) was > 100 µM (inactive) and the GI50 (LOX IMVI) was > 100 µM (inactive). For the same molecule, the GI50 (COLO 205) was > 100 µM (inactive), the GI50 (CAKI-1) was > 100 µM (inactive) and the GI50 (OVCAR-8) was > 100 µM (inactive). For the same molecule, the GI50 (786-0) was > 100 µM (inactive), the GI50 (SK-MEL-2) was > 100 µM (inactive) and the GI50 (PC-3) was > 100 µM (inactive). For the same molecule, the GI50 (MDA-MB-435) was > 100 µM (inactive), the GI50 (HCT-15) was greater than 100 µM and the GI50 (OVCAR-4) was > 100 µM (inactive). For the same molecule, the GI50 (UO-31) was > 100 µM (inactive), the GI50 (SW-620) was > 100 µM (inactive) and the GI50 (CCRF-CEM) was > 100 µM (inactive). For the same molecule, the GI50 (MCF7) was > 100 µM (inactive).

In the case of Cc1nc(C(N)=S)sc1C(=O)CC(=O)C(=O)Nc1cccc(Cl)c1C, the GI50 (ACHN) was > 100 µM (inactive), the GI50 (MDA-N) was > 100 µM (inactive) and the GI50 (SF-539) was > 100 µM (inactive). For the same molecule, the GI50 (MDA-MB-231) was > 100 µM (inactive), the GI50 (RXF 393) was > 100 µM (inactive) and the GI50 (MOLT-4) was > 100 µM (inactive). For the same molecule, the GI50 (SF-268) was > 100 µM (inactive), the GI50 (EKVX) was > 100 µM (inactive) and the GI50 (M14) was > 100 µM (inactive). For the same molecule, the GI50 (UACC-257) was > 100 µM (inactive), the GI50 (HOP-62) was > 100 µM (inactive) and the GI50 (SN12C) was > 100 µM (inactive). The GI50 (BT-549) was > 100 µM (inactive), the GI50 (U-251) was > 100 µM (inactive) and the GI50 (Hs-578T) was > 100 µM (inactive). For the same molecule, the GI50 (NCI-H522) was > 100 µM (inactive), the GI50 (UACC-62) was > 100 µM (inactive) and the GI50 (NCI-H460) was > 100 µM (inactive). For the same molecule, the GI50 (RPMI-8226) was > 100 µM (inactive), the GI50 (SK-OV-3) was > 100 µM (inactive) and the GI50 (Malme-3M) was > 100 µM (inactive). For the same molecule, the GI50 (HOP-92) was > 100 µM (inactive), the GI50 (A498) was > 100 µM (inactive) and the GI50 (HL-60) was > 100 µM (inactive). For the same molecule, the GI50 (K562) was > 100 µM (inactive), the GI50 (KM12) was > 100 µM (inactive) and the GI50 (SF-295) was > 100 µM (inactive). For the same molecule, the GI50 (NCI/ADR-RES) was > 100 µM (inactive), the GI50 (NCI-H23) was > 100 µM (inactive) and the GI50 (NCI-H226) was > 100 µM (inactive). For the same molecule, the GI50 (SNB-19) was > 100 µM (inactive), the GI50 (OVCAR-3) was > 100 µM (inactive) and the GI50 (SK-MEL-5) was > 100 µM (inactive). For the same molecule, the GI50 (HT-29) was > 100 µM (inactive), the GI50 (SR) was > 100 µM (inactive) and the GI50 (IGROV-1) was > 100 µM (inactive). The GI50 (OVCAR-5) was > 100 µM (inactive), the GI50 (A549) was > 100 µM (inactive) and the GI50 (T47D) was > 100 µM (inactive). For the same molecule, the GI50 (HCC 2998) was > 100 µM (inactive), the GI50 (TK-10) was > 100 µM (inactive) and the GI50 (SK-MEL-28) was > 100 µM (inactive). For the same molecule, the GI50 (SNB-75) was > 100 µM (inactive), the GI50 (HCT-116) was > 100 µM (inactive) and the GI50 (LOX IMVI) was > 100 µM (inactive). The GI50 (CAKI-1) was > 100 µM (inactive), the GI50 (OVCAR-8) was > 100 µM (inactive) and the GI50 (786-0) was > 100 µM (inactive). For the same molecule, the GI50 (SK-MEL-2) was > 100 µM (inactive), the GI50 (PC-3) was > 100 µM (inactive) and the GI50 (MDA-MB-435) was > 100 µM (inactive). The GI50 (HCT-15) was greater than 100 µM, the GI50 (OVCAR-4) was > 100 µM (inactive) and the GI50 (UO-31) was > 100 µM (inactive). For the same molecule, the GI50 (SW-620) was > 100 µM (inactive), the GI50 (CCRF-CEM) was > 100 µM (inactive) and the GI50 (MCF7) was > 100 µM (inactive).
